Assay: Saturation concentration of CBDA and CBD
Format: physicochemical
Text: A cannabinoid composition comprising a 2:1 mixture of cannabidiolic acid (CBDA) and cannabidiol (CBD) and only minor amounts of other products provides a non-limiting illustration of how a cannabinoid incipient can be utilized to increase the in actio concentration of a target cannabinoid without increasing the in situ concentration of the target cannabinoid above its saturation concentration. […] In other words, under at least some vape-device related conditions, CBD solutions comprising greater than about 50 wt. % CBD may suffer from reduced flowability within a vape device. As such, high effective CBD concentrations appear untenable based on conventional strategies. However, the experimental results set out herein also indicate that: (i) the saturation concentration of CBDA under similar circumstances is considerably higher than that of CBD; (ii) CBDA can be converted to CBD under the conditions associated with cannabinoid vapourization (e.g. the formation of a cannabinoid-based vapour or aerosol); and (iii) including CBDA in an in situ composition can increase the saturation concentration of CBD. Accordingly, as evidenced by the results set out in the present disclosure, CBDA can be utilized as an incipient—it can increase the in actio concentration of CBD without increasing the in situ concentration of CBD above its saturation concentration. […] In this respect, the present disclosure provides access to flowable cannabinoid compositions having high effective concentrations.
FIG. 1 illustrates this with a schematic phase diagram 100 for a cannabinoid composition in accordance with the present disclosure that comprises CBDA and CBD. […] In FIG. 1, the saturation concentration of CBDA and CBD are identified with reference numbers 102 and 104, respectively, and they delineate a “potentially flowable zone” 106 from a “non-flowable zone” 108. […] This is indicated schematically in FIG. 1 with arrow 110. […]

[1] = ethanol solutions under standard temperature and pressure conditions, CBD derived from an isolate

Row | Structure (SMILES) | saturation concentration [1] | saturation concentration (under at least some vape-device related conditions)
1 | C=C(C)[C@@H]1CCC(C)=C[C@H]1c1c(O)cc(CCCCC)cc1O [CBD, cannabidiol] | about 50 wt. % | about 50 wt. %
2 | C=C(C)[C@@H]1CCC(C)=C[C@H]1c1c(O)cc(CCCCC)c(C(=O)O)c1O [CBDA, cannabidiolic acid] | about 70 wt. % | –
